This passage reports dielectric constant, flash point and normal boiling point results from patent US20220235255A1, “FLUORINE SUBSTITUTED UNSYMMETRICAL ETHERS, AND COMPOSITIONS, METHODS AND USES INCLUDING SAME” (HONEYWELL INTERNATIONAL INC., priority 2021, published 2022).

What all share (type): physicochemical
Data set [1] in a line: Dielectric constant, ASTM D150-11, room temperature, 20 GHz. From the text:
Dielectric Constant means the dielectric constant as measured in accordance with ASTM D150-11 at room temperature at 20 giga hertz (GHz).

The nature of data set [2]: Flash point / non-flammability, ASTM D3828-16a, NFPA 30. From the text: Flash Point refers the lowest temperature at which vapors of the liquid will keep burning after the ignition source is removed as determined in accordance with ASTM D3828-16a.
The flash point of a thermal management composition or fluid refers the lowest temperature at which vapours of the composition will keep burning after the ignition source is removed as determined in accordance with ASTM D3828-16a.

The nature of another data set: Normal boiling point.

For `FC(F)(F)COC(C(F)(F)F)C(F)(F)F` [Compound 1A, propane, 2-(2′,2′,2′-trifluorethoxy)-(1,1,1,3,3,3-hexafluoro)], the dielectric constant entry in data set [1] is on record as “below 4”. In data set [2], the flash point entry is recorded as “no flash point”. Besides, in the data set “Normal boiling point”, the normal boiling point entry is “about 69 °C”.
